# Laboratory results published in US20180111991A1, “MODULATORS OF ACTIVIN AND METHODS FOR MODULATING IMMUNE RESPONSES AND T FOLLICULAR HELPER CELLS” (LA JOLLA INSTITUTE FOR ALLERGY AND IMMUNOLOGY, priority 2014, published 2018).
# Entries after “also recorded” stand apart in the source; their conditions may differ.
# Assays:
# human naïve CD4 T cells [1] = experiment: qPCR / flow cytometry of LIF, PRDM1, SLAMF1, ITGβ7 on day 3 differentiated cells; assay type: cell-based; conditions: for PRDM1 (BLIMP1) expression: RNA-seq and qPCR
# Source text: FIG. 2A-O: Activin A plays a synergic role with IL-12 and molds the human Tfh gene program. (A-B) Bead purified naïve CD4 T cells from multiple healthy subjects were stimulated by anti CD3/CD28 beads on 96 well plates, in the presence of commercial human recombinant activin A, with or without IL-12. […] A representative donor is shown in (A). Data from 12 donors from 6 independent experiments are shown in (B). […] Data from one experiment representative of two are depicted (n=3). (D) Cells were cultured in vitro with different doses of activin A combined with a fixed amount of IL-12 for 5 days in the presence of anti-activin A mAb MOR8806 (block) or isotype control mAb (isotype). Graphs show mean and SEM from 3 independent experiments (n=8). Dotted lines indicate the average percentages of PD-1^+CXCR5^+ cells induced by IL-12 with isotype control mAb from 8 donors. (E) CCR7 MFI on day 5 in vitro differentiated cells. […] (J) RNA-seq analysis on day 3 in vitro differentiated cells. The “Volcano” plots show the absolute gene expression data set (RPKM) from cells differentiated with activin A and IL-12 versus cells differentiated with beads only. […] (K) Heat-map showing absolute expression (RPKM) of selected Tfh signature genes on cells differentiated with beads only, IL-12, activin A or activin A+IL12. (L and N) Relative expression (2-ΔCt) of LIF and PRDM1 was determined by qPCR. (M and O) SLAMF1 and ITGβ7 expression by flow cytometry. In (L) to (0) all the data were obtained from day 3 in vitro differentiated cells and are from at least 3 or more independent experiments (n=9 or higher). Bars show mean and SEM. * p<0.05, ** p<0.01 and *** p<0.001. RNA was isolated by QIAGEN RNeasy spin columns and reverse-transcribed into cDNA using Superscript II Reverse Transcriptase (Invitrogen). Quantitative real-time PCR of ACTB, LIF, and PRDM1 was performed using the following primers: ACTB forward, [NT], ACTB reverse, [NT] forward, [NT] reverse, [NT]; and PRDM1 forward, [NT], PRDM1 reverse [NT]. Real-time PCR was set up with Applied Biosystem SYBR Green Master Mix.
# [2] = tested on: autologous memory B cells; experiment: T-B co-culture, B cell help; assay type: cell-based, human; conditions: CD4 T cells differentiated with activin A+IL-12, 7 days with SEB
# [3] = tested on: rhesus macaque naïve CD4 T cells; experiment: Non-human primate (NHP) differentiation; assay type: cell-based, macaca mulatta (rhesus macaques); conditions: 5 days
# Method: CD4^+ T cells from rhesus macaque PBMCs were enriched using the Non-Human Primate CD4^+ T Cell Isolation Kit (Miltenyi Biotec). Naïve CD4^+ T cells were isolated by FACS sorting as CD4^+CD45RA^+CD95^−CD28^+CCR7^+ cells. Naïve CD4^+ T cells (7.5×10^4 cells/well) were activated by plate-bound anti-human-CD3 and anti-human-CD28 (both at 5 μg/ml, BD) and cultured with recombinant human/mouse/rat activin A (50 ng/ml) and/or recombinant human IL-12 (5 ng/ml) for 5 days. Phenotype was assessed by flow cytometry.
# human naïve CD4 T cells [4] = experiment: Intracellular cytokine staining after PMA/Ionomycin restimulation; assay type: cell-based
# Method: For surface staining, primary-staining panels used for phenotypic analysis or for cell sorting known in the art were used. For the intranuclear staining: cells were treated with the FoxP3 Fixation/Permeabilization kit (eBioscience) and stained in Permeabilization buffer (eBioscience). For cytokine staining: day 3 or day 5 in vitro differentiated cells (specified in the main text or in figure legends) cells were stimulated for 5 hours at 37° C. with Phorbol 12-myristate 13-acetate (PMA, 25 ng/ml) and Ionomycin (1 μg/ml) in the presence of Brefeldin A (5 μg/ml). Cells were fixed with PBS 2% FBS, 1% PFA and permeabilized with PBS 2% FBS, 0.5% Saponin (from quillaja bark, Sigma-Aldrich). Samples were analyzed on a LSR Fortessa Cell Analyzer (BD, Bioscience). Flow cytometry data were analyzed with FlowJo (Tree Star). For cell sorting, cells were sorted using sorted using a FACS Aria (BD, Bioscience).
# SMAD2/3 [5] = experiment: Analysis of phosphorylated SMAD2/3 in tonsil CD4 T cells; assay type: cell-based, human; conditions: for P-SMAD induction: activin A
# Source text: (§1) Fresh PBMCs and tonsil mononuclear cells were serum-starved over night in AIM-V medium. […] Following stimulation, the cells were fixed in BD Phosflow™ Fix Buffer I (BD Biosciences), then permeabilized using BD Phosflow™ Perm Buffer III (BD Biosciences) following manufacture's instruction.
# mouse naïve CD4 T cells = experiment: Mouse CD4 T cell differentiation; assay type: cell-based, mouse (BALB/c, C57BL/6)
# Method: Naïve CD4^+ T cells were isolated from spleen using the Naïve CD4^+ T cell isolation kit (Stem Cell). Purity was 92% or higher. Naïve CD4^+ T cells (2×10^5 cells/well) were cultured for 3 days with recombinant human/mouse/rat activin A (50 ng/ml, R&D Systems), recombinant mouse IL-12 (10 ng/ml, Peprotech), and/or recombinant mouse IL-6 (20 ng/ml, Peprotech) in the presence of plate-bound anti-mouse-CD3 mAb (8 μg/ml, clone 145-2C11, BioXcell) and anti-mouse-CD28 (8 μg/ml, clone 37.51, BioXcell), in RPMI medium, supplemented with 10% fetal bovine serum, GlutaMAX, penicillin/streptomycin, and 2.5 μM β-mercaptoethanol. After 3 days, cells were removed from stimuli and further cultured for 2 additional days in IL-2 (50 U/mL,) and the same cytokine combination used at day 0. Phenotype was quantified by FACS at day 5 of the in vitro culture.
# SMAD2/3 [6] = experiment: Analysis of phosphorylated SMAD2/3 in blood naïve CD4 T cells; assay type: cell-based, human
# Source text: as §1
substance,measurement,setting,value
"activin A: commercial recombinant cytokine, homodimer of the INHBA gene product (inhibin beta A)",LIF and LTα expression,human naïve CD4 T cells [1]; CD4 T cells cultured with activin A,enhanced CD4 T cell expression of LIF and LTα
same,PRDM1 (BLIMP1) expression,human naïve CD4 T cells [1]; day 3 differentiated cells,express less PRDM1 (Blimp1)
same,PRDM1 (BLIMP1) expression,"human naïve CD4 T cells [1]; day 3 differentiated cells, listed as Activin A",significant downregulation of PRDM1
same,ITGβ7 expression,"human naïve CD4 T cells [1]; day 3 differentiated cells, flow cytometry",downregulated in the presence of activin A
same,"B cell help (B cell proliferation and survival, plasmablast differentiation, IgG production)",[2],functionally competent B cell helpers
same,induction of PD-1+CXCR5+ cells,[3],Potent induction of PD-1^+CXCR5^+ cells; also recorded: potent CXCR5 and PD-1 inducer for both human and non-human primate activated naïve CD4 T cells
same,IL-21 production,"human naïve CD4 T cells [4]; cells cultured with activin A+IL-12, PMA/Ionomycin re-stimulation",retained full IL-21 production potential
same,TNFα and LTα protein expression,"human naïve CD4 T cells [4]; day 3 cells, PMA/Ionomycin restimulation",superior ability of CD4 T cells cultured with activin A to express TNFα and LTα proteins
same,P-SMAD induction,SMAD2/3 [5]; tonsil PD-1intCXCR5int mTfh cells,moderate but specific P-SMAD induction
same,P-SMAD induction,SMAD2/3 [5]; tonsil fully mature GC Tfh cells,did not
same,phosphorylation of SMAD2/3,SMAD2/3 [5]; tonsil naïve CD4 T cells cultured with activin A,quickly phosphorylated SMAD2/3
same,in vitro mouse Tfh differentiation,mouse naïve CD4 T cells; activin A in the presence of IL-6,did not result in activin A mediated promotion of in vitro mouse Tfh differentiation
same,PD-1 and CXCR5 expression,"mouse naïve CD4 T cells; mouse CD4 T cells, activin A alone or with IL-12, C57BL/6 and BALB/c",did not have any relevant effect on PD-1 and CXCR5 expression by mouse CD4 T cells; also recorded: No relevant CXCR5 and PD-1 induction
same,phosphorylation of SMAD2/3,"SMAD2/3 [6]; blood naïve CD4 T cells, activin A 400 ng/ml",Phosphorylation of SMAD2/3 in naïve human CD4 T cells in response to activin A was observed
same,induction of SMAD-independent pathways,"SMAD2/3 [6]; downstream of activin A, time points analyzed",No relevant induction of SMAD-independent pathways
